Consider 26 compounds from patent US12528802B2, “Heterocyclic compound” (Takeda Pharmaceutical Company Limited, priority 2019, dated 2026).

The target of the assay is T1, glucosylceramide synthase (Homo sapiens, UniProt Q16739).
T1 construct: made in house; host or cells: Expi293F cells (transient expression, pcDNA3.3-TOPO vector); microsome fraction used as enzyme source
T1 sequence (Q16739 1-394): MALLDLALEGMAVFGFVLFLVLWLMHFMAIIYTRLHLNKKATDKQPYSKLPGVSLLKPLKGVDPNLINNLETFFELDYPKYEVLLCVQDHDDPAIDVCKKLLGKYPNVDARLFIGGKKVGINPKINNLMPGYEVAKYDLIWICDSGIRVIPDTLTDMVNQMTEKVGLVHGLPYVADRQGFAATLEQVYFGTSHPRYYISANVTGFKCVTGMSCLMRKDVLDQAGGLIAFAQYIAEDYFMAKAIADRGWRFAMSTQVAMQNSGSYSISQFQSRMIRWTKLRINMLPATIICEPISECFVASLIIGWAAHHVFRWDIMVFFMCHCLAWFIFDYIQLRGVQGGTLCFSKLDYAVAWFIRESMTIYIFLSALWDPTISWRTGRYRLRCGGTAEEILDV
Briefly: Glucosylceramide synthase (GCS) enzyme assay, microsome fraction, C8 glucosylceramide quantified by Rapidfire MS/MS. Type of assay: biochemical. Conditions: test compound 10 μM; 1.7 μM UDP-glucose, 3 μM C8 ceramide; room temperature 60 min; read-out: GCS enzyme inhibitory rate at 10 μM (%) (% of control). The method, boiled down:
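Test compound, 10 μM final, was run against human GCS from transfected Expi293F microsome fractions, using substrate solution of 6 μM C8 ceramide (in DOPC liposomes) plus 3.4 μM UDP-glucose, pH 7.5 Tris buffer, 60 min, room temperature. Product C8 glucosylceramide measured by Rapidfire MS/MS against an internal standard, % inhibition referenced to no-enzyme and DMSO wells.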
As to `COC(=O)c1ccc(N2CC3=C(OC[C@H](C)N=C3c3ccccc3OCC(F)(F)F)C2=O)cc1` [Example 331, methyl 4-{(3S)-3-methyl-8-oxo-5-[2-(2,2,2-trifluoroethoxy)phenyl]-2,3,6,8-tetrahydro-7H-pyrrolo [3,4-f][1,4]oxazepin-7-yl}benzoate], the inhibition at 10 µM came out at 91%. The result for `COC(=O)c1ccc(N2CC3=C(OC[C@@H](C)N=C3c3ccccc3OCC(F)(F)F)C2=O)cc1` [Example 333, methyl 4-{(3R)-3-methyl-8-oxo-5-[2-(2,2,2-trifluoroethoxy)phenyl]-2,3,6,8-tetrahydro-7H-pyrrolo [3,4-f][1,4]oxazepin-7-yl}benzoate] reads 97%; that for `CC(=O)c1ccc(N2CC3=C(OC[C@H](C)N=C3c3ccccc3OCC(F)(F)F)C2=O)cc1` [Example 334, (3S)-7-(4-acetylphenyl)-3-methyl-5-[2-(2,2,2-trifluoroethoxy)phenyl]-2,3,6,7-tetrahydro-8H-pyrrolo [3,4-f][1,4]oxazepin-8-one], 88%; that for `COC(=O)c1ccc(N2CC3=C(OCCN=C3c3ccccc3OCC(F)(F)F)C2=O)cc1` [Example 335, methyl 4-{8-oxo-5-[2-(2,2,2-trifluoroethoxy)phenyl]-2,3,6,8-tetrahydro-7H-pyrrolo[3,4-f] [1,4]oxazepin-7-yl}benzoate], 95%.

As to `CC(C)(O)c1ccc(N2Cc3c(cc(Br)c(=O)n3-c3ccccc3OCC(F)(F)F)C2=O)cc1` [Example 336, 3-bromo-6-[4-(2-hydroxypropan-2-yl)phenyl]-1-[2-(2,2,2-trifluoroethoxy)phenyl]-6,7-dihydro-1H-pyrrolo[3,4-b]pyridine-2,5-dione], the inhibition at 10 µM was 98%. On to `Cc1cc2c(n(-c3ccccc3OCC(F)(F)F)c1=O)CN(c1ccc(C(C)(C)O)cc1)C2=O` [Example 337, 6-[4-(2-hydroxypropan-2-yl)phenyl]-3-methyl-1-[2-(2,2,2-trifluoroethoxy)phenyl]-6,7-dihydro-1H-pyrrolo[3,4-b]pyridine-2,5-dione], for which the inhibition at 10 µM was 98%. Turning to `Cc1cc2c(c(-c3ccccc3OCC(F)(F)F)n1)CN(c1ccc(C(F)(F)CO)cc1)C2=O` [Example 338, 2-[4-(1,1-difluoro-2-hydroxyethyl)phenyl]-6-methyl-4-[2-(2,2,2-trifluoroethoxy)phenyl]-2,3-dihydro-1H-pyrrolo [3,4-c]pyridin-1-one], the inhibition at 10 µM amounted to 100%.

As to `CC(C)(O)C(F)(F)c1ccc(N2Cc3c(ccnc3-c3ccccc3OCC(F)F)C2=O)cc1` [Example 339, 4-[2-(2,2-difluoroethoxy)phenyl]-2-[4-(1,1-difluoro-2-hydroxy-2-methylpropyl)phenyl]-2,3-dihydro-1H-pyrrolo[3,4-c]pyridin-1-one], the inhibition at 10 µM was 99%. The result for `CC(C)(O)C(F)(F)c1ccc(N2Cc3c(ccnc3-c3ccccc3OCC(F)(F)F)C2=O)cc1` [Example 340, 2-[4-(1,1-difluoro-2-hydroxy-2-methylpropyl)phenyl]-4-[2-(2,2,2-trifluoroethoxy)phenyl]-2,3-dihydro-1H-pyrrolo[3,4-c]pyridin-1-one] reads 99%; that for `Cc1cc2c(c(-c3ccccc3OCC(F)(F)F)n1)CN(c1ccc(C(F)(F)C(C)(C)O)cc1)C2=O` [Example 342, 2-[4-(1,1-difluoro-2-hydroxy-2-methylpropyl)phenyl]-6-methyl-4-[2-(2,2,2-trifluoroethoxy)phenyl]-2,3-dihydro-1H-pyrrolo [3,4-c]pyridin-1-one], 100%; that for `CC(C)(O)c1cc2c(c(-c3ccccc3OCC(F)(F)F)n1)CN(c1ccc(OCC(F)(F)F)cc1)C2=O` [Example 343, 6-(2-hydroxypropan-2-yl)-4-[2-(2,2,2-trifluoroethoxy)phenyl]-2-[4-(2,2,2-trifluoroethoxy)phenyl]-2,3-dihydro-1H-pyrrolo[3,4-c]pyridin-1-one], 100%.

`O=C1c2ccnc(-c3ccccc3OCC(F)(F)F)c2CN1c1ccc(O)cc1` [Example 347, 2-(4-hydroxyphenyl)-4-[2-(2,2,2-trifluoroethoxy)phenyl]-2,3-dihydro-1H-pyrrolo[3,4-c]pyridin-1-one]: the inhibition at 10 µM is 76%. The result for `Cc1cc2c(c(-c3ccccc3OCC(F)(F)F)n1)CN(c1ccc(C3(O)CCOCC3)cc1)C2=O` [Example 348, 2-[4-(4-hydroxyoxan-4-yl)phenyl]-6-methyl-4-[2-(2,2,2-trifluoroethoxy)phenyl]-2,3-dihydro-1H-pyrrolo[3,4-c] pyridin-1-one] reads 100%; that for `C#CCCC1(CCOc2ccc(N3Cc4c(ccnc4-c4ccccc4OCC(F)(F)F)C3=O)cc2)N=N1` [Example 349, 2-(4-{2-[3-(but-3-yn-1-yl)-3H-diaziren-3-yl]ethoxy}phenyl)-4-[2-(2,2,2-trifluoroethoxy)phenyl]-2,3-dihydro-1H-pyrrolo[3,4-c]pyridin-1-one], 100%; that for `Cn1cc2c(c(-c3ccccc3OCC(F)(F)F)c1=O)CN(c1ccc(OCC(C)(C)O)cc1)C2=O` [Example 350, 2-[4-(2-hydroxy-2-methylpropoxy)phenyl]-5-methyl-7-[2-(2,2,2-trifluoroethoxy)phenyl]-1H-pyrrolo[3,4-c]pyridine-3,6(2H,5H)-dione], 100%.

As to `Cc1cc2c(c(-c3ccc(F)cc3OCC(F)(F)F)n1)CN(c1ccc(C(C)(C)O)cc1)C2=O` [Example 351, 4-[4-fluoro-2-(2,2,2-trifluoroethoxy)phenyl]-2-[4-(2-hydroxypropan-2-yl)phenyl]-6-methyl-2,3-dihydro-1H-pyrrolo[3,4-c]pyridin-1-one], the inhibition at 10 µM was found to be 100%. On to `Cc1cc2c(c(-c3ccc(F)cc3OCC(F)(F)F)n1)CN(c1ccc(C3(O)CCOCC3)cc1)C2=O` [Example 352, 4-[4-fluoro-2-(2,2,2-trifluoroethoxy)phenyl]-2-[4-(4-hydroxyoxan-4-yl)phenyl]-6-methyl-2,3-dihydro-1H-pyrrolo[3,4-c] pyridin-1-one], for which the inhibition at 10 µM is 100%. The result for `Cc1cc2c(c(-c3c(F)cccc3OCC(F)(F)F)n1)CN(c1ccc(C(C)(C)O)cc1)C2=O` [Example 353, 4-[2-fluoro-6-(2,2,2-trifluoroethoxy)phenyl]-2-[4-(2-hydroxypropan-2-yl)phenyl]-6-methyl-2,3-dihydro-1H-pyrrolo[3,4-c]pyridin-1-one] reads 100%; that for `CC(C)(O)c1cc2c(c(-c3ccccc3OCC(F)F)n1)CN(c1ccc(OCC(F)(F)F)cc1)C2=O` [Example 354, 4-[2-(2,2-difluoroethoxy)phenyl]-6-(2-hydroxypropan-2-yl)-2-[4-(2,2,2-trifluoroethoxy)phenyl]-2,3-dihydro-1H-pyrrolo[3,4-c]pyridin-1-one], 100%; that for `CC(C)(O)c1cc2c(c(-c3ccccc3OCC(F)F)n1)CN(c1ccc(OC(F)F)cc1)C2=O` [Example 355, 4-[2-(2,2-difluoroethoxy)phenyl]-2-[4-(difluoromethoxy)phenyl]-6-(2-hydroxypropan-2-yl)-2,3-dihydro-1H-pyrrolo[3,4-c]pyridin-1-one], 100%. Regarding `CC(C)(O)c1cc2c(c(-c3ccccc3OCC(F)F)n1)CN(c1ccc(F)cc1)C2=O` [Example 356, 4-[2-(2,2-difluoroethoxy)phenyl]-2-(4-fluorophenyl)-6-(2-hydroxypropan-2-yl)-2,3-dihydro-1H-pyrrolo [3,4-c]pyridin-1-one], the inhibition at 10 µM worked out at 99%. `CC(C)(O)c1cc2c(c(-c3ccccc3OCC(F)F)n1)CN(c1ccc(C(F)F)cc1)C2=O` [Example 357, 4-[2-(2,2-difluoroethoxy)phenyl]-2-[4-(difluoromethyl)phenyl]-6-(2-hydroxypropan-2-yl)-2,3-dihydro-1H-pyrrolo[3,4-c] pyridin-1-one]: the inhibition at 10 µM stood at 100%. As to `CC(C)(O)c1cc2c(c(-c3ccccc3OCC(F)F)n1)CN(c1ccc(C(C)(C)C#N)cc1)C2=O` [Example 360, 2-(4-{4-[2-(2,2-difluoroethoxy)phenyl]-6-(2-hydroxypropan-2-yl)-1-oxo-1,3-dihydro-2H-pyrrolo [3,4-c]pyridin-2-yl}phenyl)-2-methylpropanenitrile], the inhibition at 10 µM worked out at 100%. The result for `CC(C)(C#N)COc1ccc(N2Cc3c(cc(C(C)(C)O)nc3-c3ccccc3OCC(F)F)C2=O)cc1` [Example 362, 3-(4-{4-[2-(2,2-difluoroethoxy)phenyl]-6-(2-hydroxypropan-2-yl)-1-oxo-1,3-dihydro-2H-pyrrolo[3,4-c]pyridin-2-yl}phenoxy)-2,2-dimethylpropanenitrile] reads 100%. On to `CC(C)(O)c1ccc(N2Cc3c(cc(C(C)(C)O)nc3-c3ccccc3OCC(F)F)C2=O)cn1` [Example 363, 4-[2-(2,2-difluoroethoxy)phenyl]-6-(2-hydroxypropan-2-yl)-2-[6-(2-hydroxypropan-2-yl)pyridin-3-yl]-2,3-dihydro-1H-pyrrolo [3,4-c]pyridin-1-one], for which the inhibition at 10 µM was found to be 97%.

For the compound `Cc1cc2c(c(-c3ccccc3OCC(F)(F)F)n1)CN(c1ccc(OCC(C)(C)O)cc1)C2=O` [Example 364, 2-[4-(2-hydroxy-2-methylpropoxy)phenyl]-6-methyl-4-[2-(2,2,2-trifluoroethoxy)phenyl]-2,3-dihydro-1H-pyrrolo [3,4-c]pyridin-1-one], the inhibition at 10 µM amounted to 100%.
